Assay results as given in US12668589B2, “N-formamidopyrazoline derivative as P2X3 receptor antagonist and use thereof” (HANGZHOU WESTAN PHARMACEUTICAL TECHNOLOGY CO., LTD, priority 2020, dated 2026).
Each block holds one compound with its values, some of them ahead of it.

Key:
taste of SD rats = test: Rat taste test (quinine water / tap water drinking); type: in vivo
Protocol: Experimental purpose: to observe an effect of title compounds on taste of SD rats.
• 1.1) Animals and grouping: 40 male SD rats, with about 300 grams per rat. […] A bottle of normal drinking water and a bottle of drinking water containing 0.3 mM quinine hydrochloride were placed in each cage at the same time, and left and right positions where the two bottles of water were placed in all animal feeding cages were the same. After the animals were allowed to freely drink water for 15 minutes, drinking amounts of the two bottles of water were measured respectively to the nearest 0.1 mL. • 1.5) Data statistics: drinking amounts of quinine bitter water and tap water and a total water drinking amount thereof as well as a percentage of quinine water in the total water drinking amount were counted respectively. Water drinking amounts of the bitter water of animals in each group were compared. Whether differences between groups were significant was compared by analysis of variance. 2) Experimental Results

chronic cough = details: literature, cited from earlier work
gpP2X3 = target: T1, gpP2X3 (Cavia porcellus, UniProt H0VWY5); test: Inhibitory activity against P2X3 in guinea pigs (electrophysiological method); type: cell-based; details: guinea pig P2X3, electrophysiological method
T1 sequence (H0VWY5 1-391): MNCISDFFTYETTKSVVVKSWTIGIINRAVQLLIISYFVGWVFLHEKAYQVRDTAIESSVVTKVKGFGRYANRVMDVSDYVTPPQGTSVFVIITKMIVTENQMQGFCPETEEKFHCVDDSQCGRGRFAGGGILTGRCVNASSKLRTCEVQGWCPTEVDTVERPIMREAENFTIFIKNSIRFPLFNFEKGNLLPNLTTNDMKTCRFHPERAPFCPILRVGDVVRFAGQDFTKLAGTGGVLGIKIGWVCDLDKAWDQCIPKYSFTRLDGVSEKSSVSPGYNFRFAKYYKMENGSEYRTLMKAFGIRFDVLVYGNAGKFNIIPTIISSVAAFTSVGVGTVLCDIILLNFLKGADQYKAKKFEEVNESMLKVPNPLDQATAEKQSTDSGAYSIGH

rP2X3 = target: T2, rP2X3 (Rattus norvegicus, UniProt P49654); test: Inhibitory activity against P2X3 in rats (electrophysiological method); type: cell-based
T2 construct: expressed in transfected cells; host or cells: HEK293
T2 sequence (P49654 1-397): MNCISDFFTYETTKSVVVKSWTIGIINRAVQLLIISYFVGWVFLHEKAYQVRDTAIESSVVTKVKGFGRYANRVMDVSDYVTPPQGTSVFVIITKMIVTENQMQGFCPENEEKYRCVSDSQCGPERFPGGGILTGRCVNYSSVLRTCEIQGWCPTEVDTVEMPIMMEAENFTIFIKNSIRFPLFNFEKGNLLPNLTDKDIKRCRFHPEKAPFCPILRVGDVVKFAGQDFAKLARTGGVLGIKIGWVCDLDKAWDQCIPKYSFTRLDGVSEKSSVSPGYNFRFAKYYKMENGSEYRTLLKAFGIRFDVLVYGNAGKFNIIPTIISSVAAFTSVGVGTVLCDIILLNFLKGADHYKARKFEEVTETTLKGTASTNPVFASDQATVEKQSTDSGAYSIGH

human P2X2/3 = target: T3, human P2X2/3 (Homo sapiens, UniProt P56373+Q9UBL9); test: Inhibitory activity against human P2X2/3 (electrophysiological method); type: cell-based; details: read-out: hP2X2/3 (IC50)
T3 construct: expressed in transfected cells; host or cells: HEK293
T3 sequence (P56373 1-397): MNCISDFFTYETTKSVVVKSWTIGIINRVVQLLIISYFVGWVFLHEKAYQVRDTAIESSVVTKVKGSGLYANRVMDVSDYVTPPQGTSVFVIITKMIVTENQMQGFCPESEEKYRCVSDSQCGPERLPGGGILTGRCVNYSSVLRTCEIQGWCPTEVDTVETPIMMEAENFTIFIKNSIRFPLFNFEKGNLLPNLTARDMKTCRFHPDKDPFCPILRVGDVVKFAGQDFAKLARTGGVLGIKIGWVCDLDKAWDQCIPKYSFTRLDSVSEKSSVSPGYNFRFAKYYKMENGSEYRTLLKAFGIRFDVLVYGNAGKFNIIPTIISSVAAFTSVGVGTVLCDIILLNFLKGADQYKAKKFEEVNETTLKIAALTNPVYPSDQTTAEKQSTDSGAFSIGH
T3 sequence (Q9UBL9 1-471): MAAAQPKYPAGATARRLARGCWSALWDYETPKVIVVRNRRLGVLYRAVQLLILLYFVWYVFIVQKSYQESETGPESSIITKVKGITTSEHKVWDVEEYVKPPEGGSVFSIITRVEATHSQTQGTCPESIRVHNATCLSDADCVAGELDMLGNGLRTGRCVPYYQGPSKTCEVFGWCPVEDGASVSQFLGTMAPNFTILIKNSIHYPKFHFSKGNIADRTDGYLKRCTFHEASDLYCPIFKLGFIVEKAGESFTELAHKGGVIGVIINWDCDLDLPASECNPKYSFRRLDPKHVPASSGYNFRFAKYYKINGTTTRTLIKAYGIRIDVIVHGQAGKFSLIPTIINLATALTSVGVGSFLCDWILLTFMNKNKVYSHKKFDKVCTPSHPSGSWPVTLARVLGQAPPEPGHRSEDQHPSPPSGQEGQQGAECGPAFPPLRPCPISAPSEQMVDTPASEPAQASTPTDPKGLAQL

human P2X4 = target: T4, human P2X4 (Homo sapiens, UniProt Q99571); test: Inhibitory activity against human P2X4 (electrophysiological method); type: cell-based; details: read-out: hP2X4 (IC50)
T4 construct: expressed in transfected cells; host or cells: HEK293
T4 sequence (Q99571 1-388): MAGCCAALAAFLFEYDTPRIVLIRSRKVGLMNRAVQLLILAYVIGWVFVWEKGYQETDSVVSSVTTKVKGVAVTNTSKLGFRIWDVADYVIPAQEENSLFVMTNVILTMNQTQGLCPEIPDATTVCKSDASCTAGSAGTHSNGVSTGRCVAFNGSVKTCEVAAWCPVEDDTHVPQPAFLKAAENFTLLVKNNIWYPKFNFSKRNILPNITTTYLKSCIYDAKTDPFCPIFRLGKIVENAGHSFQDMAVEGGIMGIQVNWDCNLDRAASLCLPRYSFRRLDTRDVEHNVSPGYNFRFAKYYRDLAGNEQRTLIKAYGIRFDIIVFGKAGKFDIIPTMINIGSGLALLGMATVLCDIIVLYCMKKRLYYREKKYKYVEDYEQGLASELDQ

human P2X3 [1] = target: T5, human P2X3 (Homo sapiens, UniProt P56373); test: cell-based
T5 sequence (P56373 1-397): T3 sequence (P56373 1-397)

human PAR-1 = target: T6, human PAR-1 (Homo sapiens, UniProt P25116); test: Inhibitory activity against PAR-1, calcium ion flux fluorescence method (FLIPR); type: cell-based; details: HEK293/Ga15 cells expressing human PAR-1, TFLLR-NH2 10 μM, starting concentration 30 μM
T6 construct: host or cells: HEK293/Ga15 recombinant cell line
T6 sequence (P25116 22-425): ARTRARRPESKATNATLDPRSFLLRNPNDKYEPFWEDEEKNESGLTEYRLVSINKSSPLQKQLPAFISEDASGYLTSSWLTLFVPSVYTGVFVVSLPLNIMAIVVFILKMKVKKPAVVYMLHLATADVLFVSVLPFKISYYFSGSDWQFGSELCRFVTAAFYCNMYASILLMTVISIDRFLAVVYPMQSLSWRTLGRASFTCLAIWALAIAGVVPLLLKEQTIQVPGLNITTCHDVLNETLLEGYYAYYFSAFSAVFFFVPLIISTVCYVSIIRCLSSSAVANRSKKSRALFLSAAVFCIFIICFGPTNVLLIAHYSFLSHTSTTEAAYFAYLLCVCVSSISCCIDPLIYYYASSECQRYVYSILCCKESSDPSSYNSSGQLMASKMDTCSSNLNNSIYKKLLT
Protocol: The inhibitory activity of the title compounds against human PAR-1 was determined by a calcium ion flux fluorescence method (an FLIPR method). The method thereof was reported in the literature of Zhong et al. [Zhong et al. J Biomol Struct Dyn, 2017, 35(13):2853].
An HEK293/Ga15 recombinant cell line (HD Biosciences, Shanghai, China) stably expressing human PAR-1 was cultured in a DMEM (Thermo Fisher Scientific, Shanghai) culture solution (containing 10% calf serum, 800 μg/mL G418). Incubator conditions were 37° C. and an air humidity with 5% CO2.
On the first day, 20 μL per well of PAR-1 cells at a concentration of 4E+5 cells/mL were seeded in a 384-well analysis plate (Corning 3712). […] On the second day, a culture solution in each well was poured off. Then, 20 μL of 1×loading dye (2 μM Fluo-8 AM in 1×HBSS with 20 mM HEPES, 1 mM Probenecid, 0.025% Pluronic F-127 assay buffer) was added in each well. The cell analysis plate was cultured for 1 hour at a room temperature.
The compounds were dissolved into 100% DMSO to prepare a 10 mM stock solution, which was stored at −20° C. On the day of use, the compound stock solution was thawed at a room temperature. Each compound was subjected to 1:3 serial dilution at 11 concentration points with a DMEM culture solution with a starting concentration of 30 μM. Each compound was subjected to double dilution for testing. A positive control compound was diluted in the same way with SCH79797 with a starting concentration of 30 μM.
The cell analysis plate was placed in a FLIPR instrument (Molecular Device) and 10 μL of compounds (3× of a final concentration) in a compound plate was added to corresponding wells of the cell analysis plate. After 10 minutes, 10 μL of TFLLR-NH2 (TFA) (a final concentration of 10 μM) was added to each well to stimulate generation of intracellular calcium flux signals. Ca^++-dependent fluorescence signals were continuously monitored at excitation wavelengths of 470/495 nm and emission wavelengths of 515/575 nm to analyze the inhibitory activity of the compounds.
Data were collected and analyzed by using an FLIPR program. The inhibitory (or agonistic) activity of the compounds at each concentration was assessed by fluorescence peaks. IC50 values of the compounds were calculated by using EXCEL and PRISM programs.

human P2X3 [2] = target: T5, human P2X3; test: Inhibitory activity against human P2X3, perforated patch clamp (electrophysiological method); details: read-out: hP2X3 (IC50), transfected HEK293 cells, agonist ATP 1 μM, compounds pre-administered for 2 minutes

Water drinking amount, Tap water (taste of SD rats; 10 mg/kg intraperitoneal injection, free drinking 15 minutes, amounts measured to the nearest 0.1 mL): 8.69
Water drinking amount, Sum (taste of SD rats; 10 mg/kg intraperitoneal injection, tap plus quinine water, 15 minutes, measured to the nearest 0.1 mL): 14.02
Water drinking amount, Quinine (taste of SD rats; 10 mg/kg intraperitoneal injection, water with 0.3 mM quinine hydrochloride, 15 minutes, measured to the nearest 0.1 mL): 5.33
drinking amount of bitter water compared with solvent control group (taste of SD rats; 10 mg/kg intraperitoneal, result in words): increased significantly
Compound: COc1cc(C(C)C)c(Oc2cnc(N)nc2N)cc1S(N)(=O)=O [AF-219, reference compound]
frequency and severity of cough in patients with chronic cough (chronic cough; clinical data): significantly effective in reducing the frequency and severity of cough
taste disorders in treated subjects (chronic cough; clinical trials): can lead to taste disorders

IC50 (gpP2X3): 0.359 µM
IC50 (rP2X3): 0.103 µM
IC50 (human P2X2/3): 1.15 µM
IC50 (human P2X4): > 20 µM
IC50 (human P2X3 [1]): 0.038 µM
IC50 (human PAR-1): > 30 µM
Compound: Cc1ccc(C2=NN(C(=O)N[C@H](C)c3ccc(C(F)(F)F)nc3)C[C@@H]2N2CCOC2=O)nc1 [Compound 23, (S)-4-(2-oxooxazolidin-3-yl)-3-(5-methylpyridin-2-yl)-N-((R)-1-(6-(trifluoromethyl)pyridin-3-yl)ethyl)-4,5-dihydro-1H-pyrazol-1-carboxamide]

IC50 (human P2X3 [2]): 0.151 µM
Compound: (S)-4-(3-oxomorpholin-4-yl)-3-(4-methylphenyl])-N- ((R)-1-(3-methyl-1,2,4-oxadiazol-5-yl)ethyl)-4,5-d ihydro-1H-pyrazol-1-carboxamide [Compound 46]
